The values below come from patent EP3536368B1, “DRY POWDER INHALER COMPRISING A SEROTONIN RECEPTOR AGONIST AND A DIKETOPIPERAZINE FOR TREATING MIGRAINES” (MannKind Corporation, priority 2010, dated 2012).

Molecules are shown by their SMILES. Read-outs that look alike come from different tables or passages of the source.

One data set in a line: in vivo. The note with it: female, Sprague Dawley, rat, iv.
For data set [1] the following is noted: rat, in vivo.
Data set [2] relates to migraine model in anesthetized dogs. In words: Pharmacodynamic study, capsaicin-induced carotid vasodilation migraine model. Particulars: regardless of the route of administration. Format: in vivo, Beagle Dogs.

For the compound `CNS(=O)(=O)Cc1ccc2[nH]cc(CCN(C)C)c2c1` [Sumatriptan, sumatriptan], in the data set “in vivo”, the half-life (in general, the time needed for the level to fall by half in the phase considered) was determined as 5.07 h. Further, the tolerability entry in data set [1] is “well tolerated”. Besides, in data set [1] (iv), the AUC is reported as 273,729 (min,ng/mL)mg and the Cmax is on record as 26,719 ng/mL/mg. In data set [1] (sc), the AUC was 99,583 (min,ng/mL)mg and the Cmax stood at 2309 ng/mL/mg. Further, the “Blood pressure and heart rate” value in data set [2] was “unaltered”.
